Source: patent US5360895A, “Derivatized gold clusters and antibody-gold cluster conjugates” (priority 1992, dated 1994)

Assays:
[1] = tested on: human colon carcinoma cells (LS180)
Experimental: (§1) The 17-1A Fab' fragment-(radioactive gold)-undecagold cluster conjugate was incubated in vitro with tumor cells (LS180- a cell culture of human colon carcinoma) and non tumor cells (WM164 - a cell culture of melanoma as control) and the radioactivity of the gold was used to assay binding.
(§2) bound to cells after incubation and washing.
(§3) entry is an average (+ s.d.) of 2 samples.

[2] = Thermal stability of gold clusters; format: physicochemical; settings: 100° C.
[3] = Biodistribution of radioactive gold clusters (no antibody) in healthy mice; format: in vivo; settings: after 2 hours, tail vein
[4] = Biodistribution of radioactive gold clusters (no antibody) in healthy mice; format: in vivo
Experimental: Typically the blood had 2.8%, the spleen 0.4%, the stomach 0.4%, kidney 5.1%, bone 2.5%, gut and feces 3.3%, liver 19.3% and, carcass 13.7% of the injected amount after 24 hours. These numbers are % counts per organ normalized to 25 gm mice.

[5] = Toxicity of radioactive gold clusters (no antibody) in healthy mice; settings: tail vein; 7.8, 12.6 or 24 μg gold metal; 2 or 24 hours
Experimental: The folowing in vivo tests in mice assess both biodistribution with time and toxicity.
Various doses of gold cluster were injected into the tail vein of healthy mice: cluster containing 7.8 μg of gold metal into one group, 12.6 μg into another and 24 μg into the third. Each group consisted of 6 animals, for a total of 18 mice. Three mice from each group were sacrificed after 2 hours and the remaining 3 were terminated after 24 hours in order to determine the biodistribution in different organs as a function of time.

[6] = Chemical stability of derivatized Au13 cluster
[7] = Stability of photocrosslinked Au13 cluster to KCN (optical density at 346 and 420 nm); format: physicochemical; settings: 100 μl of cluster (1 μMolar) with 20 μl of 0.1M KCN
Experimental: Two nmol of the Au13 [P(PhCONH(CH2)3 NH2)3 ]10 cluster in 0.1M sodium citrate buffer, pH 5, was incubated with the crosslinking reagent, N-hydroxysuccinimidyl-4-azidosalicylic acid (NHS-ASA). A range of amounts was tried, from 1 to 100-fold molar excess over the number of amines in the cluster. Incubation was carried out in the dark for 30 min. The solution was exposed to UV light (Ultraviolet Products Inc., Lamp R-52) at 4 cm for 5 min. The product was purified on a 0.66×50 cm column of GH-25 (Amicon) using the buffer 0.36M triethylammonium bicarbonate/70% methanol in water. Alternately, these last two steps were reversed so that unreacted crosslinker was removed on the column before UV treatment.
The crosslinked cluster stability was quantitated by observing the decrease in optical density at 346 and 420 nm in a spectrophotometer at regular intervals after adding KCN or glutathione. One hundred μl of cluster (1 μMolar) was mixed with 20 μl of 0.1M KCN. […] Noncrosslinked cluster was completely destroyed after 2 min under these conditions.
A longer photocrosslinking reagent was also used, sulfosuccinimidyl 6-(4'-azido-2'-nitrophenylamino) hexanoate (sulfo-SANPAH). The procedure was identical to that described above. For 100-fold initial excess of crosslinker, the resulting cluster product was 100% stable to KCN indefinitely, whereas uncrosslinked cluster was completely destroyed in 2 min.

[8] = 24 hours, % counts per organ normalized to 25 gm mice

Experimental for melanoma cells (WM164): as §1, §2, §3

| Substance | % bound to tumor cells (human colon carcinoma) [1] [%] | stability at 100° C. [2] | clusters excreted [3] [%] | % bound to control cells (melanoma) (melanoma cells (WM164)) [%] | blood, % of the injected amount [4, 8] [%] | bone, % of the injected amount [4, 8] [%] | carcass, % of the injected amount [4, 8] [%] | gut and feces, % of the injected amount [4, 8] [%] | kidney, % of the injected amount [4, 8] [%] | liver, % of the injected amount [4, 8] [%] | spleen, % of the injected amount [4, 8] [%] | stomach, % of the injected amount [4, 8] [%] | clusters excreted ([4]; after 24 hours, tail vein) [%] | death or unusual reaction during or following injection [5] | stability upon addition of 1M KCN [6] | time to complete destruction in KCN [7] [min] |
| --- | --- | --- | --- | --- | --- | --- | --- | --- | --- | --- | --- | --- | --- | --- | --- | --- |
| Au11 [P(C6 H4 CONHR)3 ]7^3+ where 20 R groups are CH3 and one is (CH2)3 N(CO2)(CH2) | 0.54 ± 0.04 | perfectly stable | 44 | 0.51 ± 0.06 | 2.8 | 2.5 | 13.7 | 3.3 | 5.1 | 19.3 | 0.4 | 0.4 | 56 | no mice died or reacted unusually |  |  |
| Au13 [P(PhCONH(CH2)3 NH2)3 ]10 [derivatized Au13 cluster] |  |  |  |  |  |  |  |  |  |  |  |  |  |  | degraded | 2 |
